These results are taken from PubChem BioAssay AID977630 (Broad Institute, 2014).

Assay [1] deals with E. coli humanized H38 RFP strain growth, mixed culture, 24 h. The assay is described as follows: E. coli growth inhibition, wild-type GFP versus H38 humanized RFP strain – H38 mutant RFP vs wild-type GFP, cherry-pick, dose response (AID 977630).
The subject of assay [2] is E. coli wild-type GFP growth, mixed culture, 24 h. The assay is described as above.

Records with an inconclusive call do not appear. Calls of active or inactive are those of the source.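 The calls were made as follows: active = Normal-ribosome green reporter loss at least double humanized-ribosome red reporter loss, with overall culture growth inhibition under a set limit; inconclusive = no clear call, values can overlap the other calls; inactive = the rest.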

In general, AC50 refers to the concentration giving half of the maximal activity seen. Take `CCc1cc2ccc(OC)cc2nc1SCC(=O)N1CCN(C(=O)c2ccco2)CC1`: the half-maximal activity concentration (AC50) in assay [1] was more than 100 µM; in assay [2], > 100 µM (inactive).
As for `CCOC(=O)[C@]12Cc3ccccc3[C@H]1N(C)C(=O)c1cc(OC)ccc12`, the AC50 in assay [1] was 48.7 µM; in assay [2], > 100 µM (inactive); in assay [2] (E. coli mixed culture total OD600 growth, 24 h), 34.2 µM.
For the compound `COc1cc(NC(=O)C(c2ccccc2)c2ccccc2)c(C(=O)O)cc1OC`, the figures for the AC50 in assay [1] and in assay [2] were 22.3 µM and > 100 µM (inactive), respectively.
For the compound `COc1ccc(NS(=O)(=O)c2ccc(Cl)c(NC(=O)c3ccccc3F)c2)cc1`, the AC50 in assay [1] is more than 100 µM; in assay [2] it was > 100 µM (inactive).
